Results from patent US10774046B2, “Inhibitors for the treatment of cancer and related methods” (UNIVERSITY OF LOUISVILLE RESEARCH FOUNDATION, INC., priority 2017, dated 2020).

Assays:
cancer cells = assay: anchorage independent growth as colonies in soft agar; type: cell-based; settings: increasing concentrations
Procedure: Method: Cancer cells were plated in soft agar and the effects of increasing concentrations of Formula (VIII) on anchorage independent growth was examined. Briefly, a feeder layer of 0.6% agarose (Agar Noble, Becton Dickinson) in RPMI with 10% fetal bovine serum was plated in 6 cm plates containing vehicle (DMSO) or increasing concentrations of Formula (VIII). 1×10^4 cells were re-suspended in 0.3% agarose in RPMI/10% serum containing DMSO or increasing concentrations of Formula (VIII) and plated on top of the feeder layer. Cells were allowed to grow at 37° C. in 5% CO2 and agarose-containing media with DMSO+/−Formula (VIII) was replenished every 5 days until colonies became visible. Colonies were stained with MTT [3-(4,5-dimethylthiazol-2-yl)-2,5-diphenyl tetrazolium bromide] and counted in four random 1 cm^2 areas per plate under 40× magnification and enumerated.

human recombinant PFKFB4 = human recombinant PFKFB4 (Homo sapiens, UniProt Q16877); assay: fructose-6-phosphate kinase activity of recombinant PFKFB4 (in vitro kinase assay); type: biochemical
Sequence of human recombinant PFKFB4 (Q16877 whole entry): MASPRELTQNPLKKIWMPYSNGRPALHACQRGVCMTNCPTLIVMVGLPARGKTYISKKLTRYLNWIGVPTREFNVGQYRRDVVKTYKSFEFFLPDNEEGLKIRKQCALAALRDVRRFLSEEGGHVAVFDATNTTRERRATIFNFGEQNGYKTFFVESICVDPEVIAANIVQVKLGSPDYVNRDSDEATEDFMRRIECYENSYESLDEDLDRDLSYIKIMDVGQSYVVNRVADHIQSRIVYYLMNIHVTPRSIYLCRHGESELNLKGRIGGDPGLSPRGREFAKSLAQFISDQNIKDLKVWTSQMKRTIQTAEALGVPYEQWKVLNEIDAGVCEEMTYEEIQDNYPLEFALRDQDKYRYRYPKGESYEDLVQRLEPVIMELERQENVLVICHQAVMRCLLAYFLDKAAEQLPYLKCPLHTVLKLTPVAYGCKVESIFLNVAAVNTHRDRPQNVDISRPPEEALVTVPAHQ
Procedure: The fructose-6-phosphate kinase activity of human recombinant PFKFB4 in the presence of DMSO±indicated 5MPN concentrations was assayed as previously described. The activity of 5MPN against 97 kinases was examined using a commercially available active-site dependent competition binding assay core service (KINOMEscanEDGE) that quantifies the capacity of test agents to compete with an immobilized, active-site directed ligand using a DNA-tagged kinase and immobilized ligand and compound. For example, enzyme inhibition was studied using an ADP-Glo assay. The effect of MPN-2 on the activity of recombinant human PFKFB4 enzyme was examined in an ADP-Glo assay (Promega), which measures ADP formed from a kinase reaction. ADP is converted into ATP, which is converted into light by a luciferase. PFKFB4 protein was exposed to MPN-2 at indicated concentrations in the presence of ATP and fructose-6-phosphate and following manufacturer's instructions, ADP-Glo and kinase detections reagents were added. The data are shown as the decrease in luminescence caused by MPN-2 relative to DMSO.

[1] = tested on: PFKFB4-/- lung fibroblasts; assay: cell counts of tamoxifen-inducible PFKFB4-/- fibroblasts; type: cell-based, mouse; settings: 4HT-induced deletion, 10 μM 5MPN, 24 hours
Source text: H460, H1299, H441, H522 and A549 non-small cell lung cancer (NSCLC), MDA-MB-231 (breast), LNCaP (prostatic) and HCT116 (colon) adenocarcinoma and Lewis lung carcinoma (LLC) cell lines were obtained from ATCC and used within 6 months of acquisition. PFKFB4^−/− ear pinna fibroblasts isolated from TamCre/loxP/PFKFB4^−/− mice were immortalized as described previously (Chesney J et al. Fructose-2,6-bisphosphate synthesis by 6-phosphofructo-2-kinase/fructose-2,6-bisphosphatase 4 (PFKFB4) is required for the glycolytic response to hypoxia and tumor growth. Oncotarget 2014 Aug. 30; 5(16):6670-86). Normal bronchial epithelial cells (NHBE) were obtained from Lonza and NHBE cells expressing telomerase, SV40 large T antigen and activated Ras (hT/LT/Ras) were a gift from Dr. B. J. Rollins, Dana Farber Cancer Institute. All cell lines were tested and found negative for mycoplasma (PCR Mycoplasma Detection Kit, ABM). Cell lines were grown in DMEM (A549, LNCaP, MDA-MB-231, LLC and PFKFB4^−/−), RPMI 1640 (H460, H1299, H441, H522) and McCoy's 5A media (HCT116) (all from Invitrogen) containing 10% fetal calf serum (Hyclone). […]
Cells were incubated in 20% trypan blue (Sigma) for 5 minutes. Cells excluding trypan blue were counted using a standard hemocytometer (Hausser Scientific) to determine total numbers of viable cells. Data are expressed as mean±SD of three experiments.

[2] = pharmacokinetic profile after IV and oral administration; type: in vivo; settings: C57BL/6 mice
Procedure: The pharmacokinetic profile was determined in female C57BL/6 mice following IV and oral administration of 5MPN. Using only female mice lowered the animal numbers required for meaningful results without issues of potential gender differences in exposure. Eight time points (n=3/time point) were used to determine PK parameters calculated using WinNonLin v5.0. Plasma samples were extracted using acetonitrile and analyzed by LC/MS-MS using a PhenomexSynergi Polar-RP 4 micron 50×2.0 mm column eluted with a biphasic mobile phase (0.5% formic acid in acetonitrile and water).

LLC xenografts = assay: Ki67 immunohistochemistry of tumors; type: in vivo, C57BL/6 mice; settings: 120 mg/kg by gavage daily, ten days
Procedure: Formalin-fixed, paraffin-embedded tissue sections were processed as previously described then incubated with anti-Ki-67 primary antibody (Abcam) overnight, followed by HRP-linked goat anti-rabbit secondary antibody (1:300, Pierce). Sections were developed with 3,3′-diaminobenzidine tetrahydrochloride, counterstained, scanned and analyzed with the positive pixel count algorithm as previously described. Data are depicted as % positive pixels/total pixels±SD.

Compound | anchorage independent growth (soft agar colonies) (cancer cells) | type of inhibition (Lineweaver-Burk analyses) (human recombinant PFKFB4; as a function of F6P concentration, FIG. 1D) | PFKFB4 activity (human recombinant PFKFB4; kinase activity of recombinant PFKFB4, FIG. 1C) | effect of genomic deletion of Pfkfb4 on anti-proliferative effect [1] | oral bioavailability [2] | concentrations reached by intravenous and oral administration ([2]; IV and oral, administered daily) | Ki67-positive cells (LLC xenografts)
COc1cccc2c(NCCCCCNC(=O)C(F)(F)F)ccnc12 [Formula (VIII), 2,2,2-trifluoro-N-(5-((8-methoxyquinolin-4-yl)amino)pentyl)acetamide] | inhibited the growth of cancer cells as soft agar colonies | – | – | – | – | – | –
COc1cccc2c(NCCCCCO[N+](=O)[O-])ccnc12 [5MPN, 5-[(8-methoxyquinolin-4-yl)amino]pentyl nitrate] | – | competitive inhibitor of the F6P binding site | inhibited PFKFB4 activity | sensitized | has oral bioavailability | adequate to achieve potentially therapeutic concentrations | reduction in Ki67-positive cells
